# Tested on: HCC1937
# Assay: normalised response (% of control), CellTiter-Glo; higher = more viable cells (100 = DMSO, 0 = benzethonium chloride kill control)
# Details: incubation time: 72 h
# Summary of the method: (§1)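 Plates were normalised with 0.1 % DMSO as 100 and a positive kill control as 0. Breast cancer cell lines in 20 µl suspension had been seeded into 384-well plates with compound at 5 concentrations in 10-fold steps over a compound-specific 10,000-fold range, incubated 72 h, and read for CellTox Green fluorescence (485/520 nm) followed by CellTiter-Glo luminescence. Each value is the normalised signal at a single concentration.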
row,SMILES,normalised response
1,N[C@@H](CSC(c1ccccc1)(c1ccccc1)c1ccccc1)C(=O)O [S-trityl-L-cysteine] (40 nM),93.8%
2,N#CCNC(=O)c1ccc(-c2ccnc(Nc3ccc(N4CCOCC4)cc3)n2)cc1 [Momelotinib] (1 nM),97.7%
3,CC(=O)Nc1ccc(C(=O)Nc2ccccc2N)cc1 [Tacedinaline] (1 nM),92.7%
4,NC(=O)Nc1cc(-c2cccc(F)c2)sc1C(=O)N[C@H]1CCCNC1 [AZD7762] (1 nM),98.7%
5,C[C@]12CC[C@@H]3c4ccc(O)cc4C[C@@H](CCCCCCCCC[S+]([O-])CCCC(F)(F)C(F)(F)F)[C@H]3[C@@H]1CC[C@@H]2O (stereo partly drawn) [Fulvestrant] (0.1 nM),105%
6,CO[C@H]1/C=C\C=C(/C)C(=O)NC2=CC(=O)C(NCCN(C)C)=C(C[C@@H](C)C[C@H](OC)[C@H](O)[C@@H](C)/C=C(\C)[C@@H]1OC(N)=O)C2=O [Alvespimycin] (1 nM),91.6%
7,COc1cc2ncnc(Nc3ccc(F)c(Cl)c3)c2cc1NC(=O)/C=C/CN1CCCCC1 [Dacomitinib] (0.1 nM),104%
8,CCCCCCCCCCCCCCCCCCOP(=O)([O-])OC1CC[N+](C)(C)CC1 [Perifosine] (0.25 nM),98.8%
9,COc1cc2nccc(Oc3ccc(NC(=O)C4(C(=O)Nc5ccc(F)cc5)CC4)cc3)c2cc1OC [Cabozantinib] (1 nM),94.4%

# Tested on: SK-BR-3
# Assay: as above
# Details: incubation time: 72 h
# Summary of the method: as §1
row,SMILES,normalised response
1,N.N.[Cl][Pt][Cl] [Cisplatin] (0.1 nM),98.6%
2,Cc1ccc(C(=O)Nc2ccc(CN3CCN(C)CC3)c(C(F)(F)F)c2)cc1C#Cc1cnc2cccnn12 [Ponatinib] (1 nM),99.4%
3,N[C@@H](CSC(c1ccccc1)(c1ccccc1)c1ccccc1)C(=O)O [S-trityl-L-cysteine] (40 nM),97.5%
4,N#CCNC(=O)c1ccc(-c2ccnc(Nc3ccc(N4CCOCC4)cc3)n2)cc1 [Momelotinib] (1 nM),95.8%
5,CC(=O)Nc1ccc(C(=O)Nc2ccccc2N)cc1 [Tacedinaline] (1 nM),97.1%
6,NC(=O)Nc1cc(-c2cccc(F)c2)sc1C(=O)N[C@H]1CCCNC1 [AZD7762] (1 nM),105%
7,C[C@]12CC[C@@H]3c4ccc(O)cc4C[C@@H](CCCCCCCCC[S+]([O-])CCCC(F)(F)C(F)(F)F)[C@H]3[C@@H]1CC[C@@H]2O (stereo partly drawn) [Fulvestrant] (0.1 nM),108%
8,CO[C@H]1/C=C\C=C(/C)C(=O)NC2=CC(=O)C(NCCN(C)C)=C(C[C@@H](C)C[C@H](OC)[C@H](O)[C@@H](C)/C=C(\C)[C@@H]1OC(N)=O)C2=O [Alvespimycin] (1 nM),105%
9,COc1cc2ncnc(Nc3ccc(F)c(Cl)c3)c2cc1NC(=O)/C=C/CN1CCCCC1 [Dacomitinib] (0.1 nM),99.6%
10,CCCCCCCCCCCCCCCCCCOP(=O)([O-])OC1CC[N+](C)(C)CC1 [Perifosine] (0.25 nM),92.3%
11,COc1cc2nccc(Oc3ccc(NC(=O)C4(C(=O)Nc5ccc(F)cc5)CC4)cc3)c2cc1OC [Cabozantinib] (1 nM),101%

# Tested on: MCF-10A
# Assay: as above
# Details: incubation time: 72 h
# Summary of the method: as §1
row,SMILES,normalised response
1,N.N.[Cl][Pt][Cl] [Cisplatin] (0.1 nM),103%
2,Cc1ccc(C(=O)Nc2ccc(CN3CCN(C)CC3)c(C(F)(F)F)c2)cc1C#Cc1cnc2cccnn12 [Ponatinib] (1 nM),103%
3,N[C@@H](CSC(c1ccccc1)(c1ccccc1)c1ccccc1)C(=O)O [S-trityl-L-cysteine] (40 nM),105%
4,N#CCNC(=O)c1ccc(-c2ccnc(Nc3ccc(N4CCOCC4)cc3)n2)cc1 [Momelotinib] (1 nM),90.4%
5,CC(=O)Nc1ccc(C(=O)Nc2ccccc2N)cc1 [Tacedinaline] (1 nM),93.5%
6,NC(=O)Nc1cc(-c2cccc(F)c2)sc1C(=O)N[C@H]1CCCNC1 [AZD7762] (1 nM),103%
7,C[C@]12CC[C@@H]3c4ccc(O)cc4C[C@@H](CCCCCCCCC[S+]([O-])CCCC(F)(F)C(F)(F)F)[C@H]3[C@@H]1CC[C@@H]2O (stereo partly drawn) [Fulvestrant] (0.1 nM),107%
8,CO[C@H]1/C=C\C=C(/C)C(=O)NC2=CC(=O)C(NCCN(C)C)=C(C[C@@H](C)C[C@H](OC)[C@H](O)[C@@H](C)/C=C(\C)[C@@H]1OC(N)=O)C2=O [Alvespimycin] (1 nM),106%
9,COc1cc2ncnc(Nc3ccc(F)c(Cl)c3)c2cc1NC(=O)/C=C/CN1CCCCC1 [Dacomitinib] (0.1 nM),101%
10,CCCCCCCCCCCCCCCCCCOP(=O)([O-])OC1CC[N+](C)(C)CC1 [Perifosine] (0.25 nM),101%
11,COc1cc2nccc(Oc3ccc(NC(=O)C4(C(=O)Nc5ccc(F)cc5)CC4)cc3)c2cc1OC [Cabozantinib] (1 nM),93.5%

# Tested on: HCC1599
# Assay: as above
# Details: incubation time: 72 h
# Summary of the method: as §1
row,SMILES,normalised response
1,N.N.[Cl][Pt][Cl] [Cisplatin] (0.1 nM),110%
2,Cc1ccc(C(=O)Nc2ccc(CN3CCN(C)CC3)c(C(F)(F)F)c2)cc1C#Cc1cnc2cccnn12 [Ponatinib] (1 nM),103%
3,N[C@@H](CSC(c1ccccc1)(c1ccccc1)c1ccccc1)C(=O)O [S-trityl-L-cysteine] (40 nM),109%
4,N#CCNC(=O)c1ccc(-c2ccnc(Nc3ccc(N4CCOCC4)cc3)n2)cc1 [Momelotinib] (1 nM),94.7%
5,CC(=O)Nc1ccc(C(=O)Nc2ccccc2N)cc1 [Tacedinaline] (1 nM),109%
6,NC(=O)Nc1cc(-c2cccc(F)c2)sc1C(=O)N[C@H]1CCCNC1 [AZD7762] (1 nM),95.7%
7,C[C@]12CC[C@@H]3c4ccc(O)cc4C[C@@H](CCCCCCCCC[S+]([O-])CCCC(F)(F)C(F)(F)F)[C@H]3[C@@H]1CC[C@@H]2O (stereo partly drawn) [Fulvestrant] (0.1 nM),93.4%
8,CO[C@H]1/C=C\C=C(/C)C(=O)NC2=CC(=O)C(NCCN(C)C)=C(C[C@@H](C)C[C@H](OC)[C@H](O)[C@@H](C)/C=C(\C)[C@@H]1OC(N)=O)C2=O [Alvespimycin] (1 nM),102%
9,COc1cc2ncnc(Nc3ccc(F)c(Cl)c3)c2cc1NC(=O)/C=C/CN1CCCCC1 [Dacomitinib] (0.1 nM),93.7%
10,CCCCCCCCCCCCCCCCCCOP(=O)([O-])OC1CC[N+](C)(C)CC1 [Perifosine] (0.25 nM),113%
11,COc1cc2nccc(Oc3ccc(NC(=O)C4(C(=O)Nc5ccc(F)cc5)CC4)cc3)c2cc1OC [Cabozantinib] (1 nM),107%

# Tested on: CAL-85-1
# Assay: as above
# Details: incubation time: 72 h
# Summary of the method: as §1
row,SMILES,normalised response
1,N.N.[Cl][Pt][Cl] [Cisplatin] (0.1 nM),97.2%
2,Cc1ccc(C(=O)Nc2ccc(CN3CCN(C)CC3)c(C(F)(F)F)c2)cc1C#Cc1cnc2cccnn12 [Ponatinib] (1 nM),108%
3,N[C@@H](CSC(c1ccccc1)(c1ccccc1)c1ccccc1)C(=O)O [S-trityl-L-cysteine] (40 nM),104%
4,N#CCNC(=O)c1ccc(-c2ccnc(Nc3ccc(N4CCOCC4)cc3)n2)cc1 [Momelotinib] (1 nM),94.6%
5,CC(=O)Nc1ccc(C(=O)Nc2ccccc2N)cc1 [Tacedinaline] (1 nM),95.8%
6,NC(=O)Nc1cc(-c2cccc(F)c2)sc1C(=O)N[C@H]1CCCNC1 [AZD7762] (1 nM),98.5%
7,C[C@]12CC[C@@H]3c4ccc(O)cc4C[C@@H](CCCCCCCCC[S+]([O-])CCCC(F)(F)C(F)(F)F)[C@H]3[C@@H]1CC[C@@H]2O (stereo partly drawn) [Fulvestrant] (0.1 nM),101%
8,CO[C@H]1/C=C\C=C(/C)C(=O)NC2=CC(=O)C(NCCN(C)C)=C(C[C@@H](C)C[C@H](OC)[C@H](O)[C@@H](C)/C=C(\C)[C@@H]1OC(N)=O)C2=O [Alvespimycin] (1 nM),97.8%
9,COc1cc2ncnc(Nc3ccc(F)c(Cl)c3)c2cc1NC(=O)/C=C/CN1CCCCC1 [Dacomitinib] (0.1 nM),97.5%
10,CCCCCCCCCCCCCCCCCCOP(=O)([O-])OC1CC[N+](C)(C)CC1 [Perifosine] (0.25 nM),96.5%
11,COc1cc2nccc(Oc3ccc(NC(=O)C4(C(=O)Nc5ccc(F)cc5)CC4)cc3)c2cc1OC [Cabozantinib] (1 nM),96.1%
